# Laboratory results as given in paper PMC10331583, “Control of fibrosis with enhanced safety via asymmetric inhibition of prolyl‐tRNA synthetase 1” (EMBO Molecular Medicine, 2023).
# Where “and” joins values, the source holds several entries; their conditions need not be identical. Equal values may be shown once. Read-outs that look alike come from different tables or passages of the source.
# Experiments:
# [1] = tested on: WI‐26 VA4 cells; experiment: CellTiter‐Glo assay (cytotoxicity); settings: for activity at 0.0001 µM / activity at 0.0003 µM / activity at 0.001 µM / activity at 0.003 µM / activity at 0.01 µM / activity at 0.03 µM / activity at 0.1 µM / activity at 0.3 µM / activity at 1 µM / activity at 3 µM / activity at 10 µM / activity at 30 µM / activity at 100 µM: Homo sapiens
# Procedure: (§1) After 24 h, the cells were incubated with various concentrations of compounds for 48 h. The level of ATP as a measure of cell viability was determined using a CellTiter‐Glo® luminescent cell viability assay kit (Promega, G7571) following the manufacturer's instructions.
# (§2) WI‐26 VA4 cells were seeded at 1.2 × 10^4 cells/well in 96‐well white plates. After 24 h, the cells were incubated with the indicated concentrations of compounds for 72 h. The viability was determined as described above.
# [2] = CellTiter‐Glo assay (cytotoxicity); settings: human, WI-26 VA4 cells
# Procedure: as §1, §2
# [3] = tested on: WI‐26 VA4 cells; experiment: Collagen ELISA (secreted pro‐collagen I)
# Procedure: WI‐26 VA4 cells were seeded at 3.5 × 10^4 cells/well on 24 well plates. After 24 h, the cells were starved of serum for 6 h. Then, the cells were incubated with the indicated concentrations of compounds in the presence of TGF‐β (2 ng/ml) (R&D systems, 240‐B‐002) for 72 h. The supernatant of the cells was collected and centrifuged at 500 g for 5 min to remove cell debris. Then, the level of pro‐collagen I in the supernatant was determined using Human Pro‐collagen I alpha 1 DuoSet ELISA (R&D systems, DY6220‐05) and DuoSet ELISA Ancillary Reagent Kit 2 (R&D systems, DY008) following the manufacturer's instructions.
smiles,measurement,setting,value
O=C(C[C@H]1NCCC[C@@H]1O)Cn1cnc2ccc(-c3cccc(F)c3)cc21 [DWN11251],activity at 0.0001 µM,"[1]; WI26VA4, read-out: CellTiter-Glo % of control, 0.1 nM, Experiment #1, replicates",92.7%
same,activity at 0.0001 µM,"[1]; WI26VA4, read-out: CellTiter-Glo % of control, 0.1 nM, Experiment #2, replicates",120%
same,activity at 0.0003 µM,"[1]; WI26VA4, read-out: CellTiter-Glo % of control, 0.3 nM, Experiment #1, replicates",111%
same,activity at 0.0003 µM,"[1]; WI26VA4, read-out: CellTiter-Glo % of control, 0.3 nM, Experiment #2, replicates",121%
same,activity at 0.001 µM,"[1]; WI26VA4, read-out: CellTiter-Glo % of control, 1 nM, Experiment #1, replicates",105%
same,activity at 0.001 µM,"[1]; WI26VA4, read-out: CellTiter-Glo % of control, 1 nM, Experiment #2, replicates",107%
same,activity at 0.003 µM,"[1]; WI26VA4, read-out: CellTiter-Glo % of control, 3 nM, Experiment #1, replicates",122%
same,activity at 0.003 µM,"[1]; WI26VA4, read-out: CellTiter-Glo % of control, 3 nM, Experiment #2, replicates",111%
same,activity at 0.01 µM,"[1]; WI26VA4, read-out: CellTiter-Glo % of control, 10 nM, Experiment #1, replicates",100%
same,activity at 0.01 µM,"[1]; WI26VA4, read-out: CellTiter-Glo % of control, 10 nM, Experiment #2, replicates",121%
same,activity at 0.03 µM,"[1]; WI26VA4, read-out: CellTiter-Glo % of control, 30 nM, Experiment #1, replicates",108%
same,activity at 0.03 µM,"[1]; WI26VA4, read-out: CellTiter-Glo % of control, 30 nM, Experiment #2, replicates",124%
same,activity at 0.1 µM,"[1]; WI26VA4, read-out: CellTiter-Glo % of control, 100 nM, Experiment #1, replicates",112%
same,activity at 0.1 µM,"[1]; WI26VA4, read-out: CellTiter-Glo % of control, 100 nM, Experiment #2, replicates",126%
same,activity at 0.3 µM,"[1]; WI26VA4, read-out: CellTiter-Glo % of control, 300 nM, Experiment #1, replicates",98.2%
same,activity at 0.3 µM,"[1]; WI26VA4, read-out: CellTiter-Glo % of control, 300 nM, Experiment #2, replicates",105%
same,activity at 1 µM,"[1]; WI26VA4, read-out: CellTiter-Glo % of control, 1000 nM, Experiment #1, replicates",73.2%
same,activity at 1 µM,"[1]; WI26VA4, read-out: CellTiter-Glo % of control, 1000 nM, Experiment #2, replicates",76.4%
same,activity at 3 µM,"[1]; WI26VA4, read-out: CellTiter-Glo % of control, 3000 nM, Experiment #1, replicates",36.1%
same,activity at 3 µM,"[1]; WI26VA4, read-out: CellTiter-Glo % of control, 3000 nM, Experiment #2, replicates",46.1%
same,activity at 10 µM,"[1]; WI26VA4, read-out: CellTiter-Glo % of control, 10000 nM, Experiment #1, replicates",26.6%
same,activity at 10 µM,"[1]; WI26VA4, read-out: CellTiter-Glo % of control, 10000 nM, Experiment #2, replicates",30%
same,activity at 30 µM,"[1]; WI26VA4, read-out: CellTiter-Glo % of control, 30000 nM, Experiment #1, replicates",12.4%
same,activity at 30 µM,"[1]; WI26VA4, read-out: CellTiter-Glo % of control, 30000 nM, Experiment #2, replicates",11.9%
same,activity at 100 µM,"[1]; WI26VA4, read-out: CellTiter-Glo % of control, 100000 nM, Experiment #1, replicates",1.59%
same,activity at 100 µM,"[1]; WI26VA4, read-out: CellTiter-Glo % of control, 100000 nM, Experiment #2, replicates",0.95%
same,activity at 0.0001 µM,"[1]; WI26VA4, read-out: CellTiter-Glo % of control, average, 0.1 nM, average",110%
same,activity at 0.0003 µM,"[1]; WI26VA4, read-out: CellTiter-Glo % of control, average, 0.3 nM, average",116%
same,activity at 0.001 µM,"[1]; WI26VA4, read-out: CellTiter-Glo % of control, average, 1 nM, average",108%
same,activity at 0.003 µM,"[1]; WI26VA4, read-out: CellTiter-Glo % of control, average, 3 nM, average",112%
same,activity at 0.01 µM,"[1]; WI26VA4, read-out: CellTiter-Glo % of control, average, 10 nM, average",113%
same,activity at 0.03 µM,"[1]; WI26VA4, read-out: CellTiter-Glo % of control, average, 30 nM, average",119%
same,activity at 0.1 µM,"[1]; WI26VA4, read-out: CellTiter-Glo % of control, average, 100 nM, average",119%
same,activity at 0.3 µM,"[1]; WI26VA4, read-out: CellTiter-Glo % of control, average, 300 nM, average",101%
same,activity at 1 µM,"[1]; WI26VA4, read-out: CellTiter-Glo % of control, average, 1000 nM, average",76.7%
same,activity at 3 µM,"[1]; WI26VA4, read-out: CellTiter-Glo % of control, average, 3000 nM, average",41.3%
same,activity at 10 µM,"[1]; WI26VA4, read-out: CellTiter-Glo % of control, average, 10000 nM, average",29%
same,activity at 30 µM,"[1]; WI26VA4, read-out: CellTiter-Glo % of control, average, 30000 nM, average",14.4%
same,activity at 100 µM,"[1]; WI26VA4, read-out: CellTiter-Glo % of control, average, 100000 nM, average",1.22%
same,CellTiter-Glo LogIC50 (best-fit value),"[1]; log(inhibitor) vs. response, variable slope (four parameters), concentration in nM",3.259
same,CC50 at 72 h,[2],1820 nM
same,"Collagen, % of control (single replicates per experiment)","[3]; 10 nM, 0.01 µM",112.57 % of control and 103.72 % of control and 109.80 % of control and 111.67 % of control and 110.64 % of control
same,"Collagen, % of control (single replicates per experiment)","[3]; 100 nM, 0.1 µM",84.02 % of control and 93.58 % of control and 96.09 % of control and 96.94 % of control and 92.86 % of control
same,"Collagen, % of control (single replicates per experiment)","[3]; 300 nM, 0.3 µM",47.78 % of control and 47.63 % of control and 53.20 % of control and 53.43 % of control and 55.58 % of control
same,"Collagen, % of control (single replicates per experiment)","[3]; 1000 nM, 1 µM",11.57 % of control and 11.31 % of control and 12.08 % of control and 14.51 % of control and 14.77 % of control
same,"Collagen, % of control (single replicates per experiment)","[3]; 3000 nM, 3 µM",3.47 % of control and 2.67 % of control and 3.07 % of control and 3.55 % of control and 4.03 % of control
same,"Collagen, % of control (single replicates per experiment)","[3]; 10000 nM, 10 µM",2.75 % of control and 2.12 % of control and 2.44 % of control and 2.49 % of control and 2.64 % of control
same,"Collagen, % of control (single replicates per experiment)","[3]; 30000 nM, 30 µM",3.52 % of control
same,CC50/collagen IC50,[3]; Fig 5E,7.08
same,IC50,"[3]; Homo sapiens, WI26VA4, read-out: Collagen IC50 (best-fit value), log(inhibitor) vs. response, variable slope (four parameters) (converted)",257 nM
same,activity at 0.01 µM,"[3]; Homo sapiens, WI26VA4, read-out: Collagen, % of control (single replicates per experiment), 10 nM",112%
same,activity at 0.03 µM,"[3]; Homo sapiens, WI26VA4, read-out: Collagen, % of control (single replicates per experiment), 30 nM",109%
same,activity at 0.1 µM,"[3]; Homo sapiens, WI26VA4, read-out: Collagen, % of control (single replicates per experiment), 100 nM",81.3%
same,activity at 0.3 µM,"[3]; Homo sapiens, WI26VA4, read-out: Collagen, % of control (single replicates per experiment), 300 nM",42.9%
same,activity at 1 µM,"[3]; Homo sapiens, WI26VA4, read-out: Collagen, % of control (single replicates per experiment), 1000 nM",10.2%
same,activity at 3 µM,"[3]; Homo sapiens, WI26VA4, read-out: Collagen, % of control (single replicates per experiment), 3000 nM",2.81%
same,activity at 10 µM,"[3]; Homo sapiens, WI26VA4, read-out: Collagen, % of control (single replicates per experiment), 10000 nM",2.31%
same,activity at 30 µM,"[3]; Homo sapiens, WI26VA4, read-out: Collagen, % of control (single replicates per experiment), 30000 nM",2.54%
same,activity at 0.01 µM,"[3]; Homo sapiens, WI26VA4, read-out: Collagen, % of control, average, 10 nM, average",110%
